This is an account of results in PMC11481179, “Development and Application of Reversible and Irreversible Covalent Probes for Human and Mouse Cathepsin‐K Activity Detection, Revealing Nuclear Activity” (Advanced Science, 2024).

For one assay, the system named is Jurkat cells. The assay can be described thus: Cathepsin labeling in intact Jurkat cells that lack mature CTSK, fluorescent SDS-PAGE. Format: cell-based, human. As to conditions: probe 5 µM, up to 24 h. Here is the method: To further corroborate the selectivity of GD32, we tested the labeling of Jurkat cells, which lack mature CTSK. Intact cells were incubated with the probe for different durations up to 24 h before they were lysed and analyzed by fluorescent SDS‐PAGE. […] These findings led us to select GD32 as a lead compound for further investigation of CTSK's activity and location in different biological and medical samples. page 8: Figure S7. Cathepsin labeling in intact Jurkat cells that lack mature CTSK. Jurkat cells were treated with GD32 or GB123 (5 µM) in a culture medium for different durations up to 24 h, followed by cell lysis, and fluorescent SDS-PAGE analysis. […] The gel was analyzed by western blot with anti CTSK antibody. While pro-CTSK is detected, indicated by the black arrow, the mature CTSK is not detected. (1 picture or pasted object on this page, not shown here)

A further assay has as its target T1, CTSK (Homo sapiens, UniProt P43235).
T1 sequence (P43235 115-329): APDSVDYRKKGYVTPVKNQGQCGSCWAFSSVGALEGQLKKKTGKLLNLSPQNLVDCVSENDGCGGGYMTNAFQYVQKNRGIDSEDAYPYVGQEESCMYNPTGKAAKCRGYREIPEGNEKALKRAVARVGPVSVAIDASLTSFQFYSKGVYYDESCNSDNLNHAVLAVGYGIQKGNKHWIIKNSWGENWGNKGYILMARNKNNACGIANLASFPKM
The assay can be described thus: Recombinant cathepsin labeling by ABPs, in-gel fluorescence. Type of assay: binding. As to conditions: ABP 5 µM, 1 h, 37 °C, pH 5.5, CTSK 0.5–280 ng. Here is the method:
The ABPs were tested for binding to recombinant CTSK compared to the closely related CTSB, CTSL, and CTSS, which are highly abundant and active in most biological samples. Using the in‐gel fluorescent analysis that detects the stable enzyme‐probe complex, active CTSK was labeled with each of the four probes, and significant selectivity was found in three probes GD32, GD37, and GD42 (Figure 1a). […] However, the minimum amount of active CTSK the remaining probes detected was much higher, ranging from 8 to 70 ngs, (Figure 1b).
Figure 1 In vitro evaluation of CTSK targeted compounds. a) Labeling of recombinant cathepsins by ABPs. Recombinant cathepsins were treated with increasing concentrations of ABPs for 1 h. Samples were separated by SDS‐PAGE and scanned for fluorescence by a Typhoon scanner at 635/670 nm. All probes show dose‐dependent binding to the CTSK, and have lower affinity to CTSS except GD36, b) CTSK [0.5–280 ng] was labeled with the indicated ABPs [5 µM]. Incubations were performed for 1 h at 37 °C, at pH 5.5. Samples were analyzed as described in (a). c) Recombinant cathepsins B, K, L, and S [0.5 µM] were first treated with the indicated concentrations of the inhibitor GD30 or vehicle for 1 h followed by incubation with a pan cathepsin probe GB123 [1 µM] for 1 h. Samples were analyzed as described in (a). d) Quantitative analysis of CTSK inhibition by GD30 presented in (d), data represent mean values ± standard error, n = 3. e) IC50 plot of GD30 inhibition of CTSK activity. […]
emission wavelengths of 370 and 460 nm, respectively. Cathepsin concentrations in the assay were 0.4 nM (CTSK) or 5 nM (CTSS, CTSB, and CTSL). […] For irreversible inhibitors, reaction data were fitted to the one-phase association formula in GraphPad Prism 9 software: Y=Y0 + (Plateau-Y0)*(1-exp(-K*X)) where in this case Y0 and Y represent fluorescence signal at times 0 and t, respectively, K represent the observed reaction rate kobs and X the inhibitor concentration. […]
reaction was stopped and samples were analyzed as described above. […]

Turning to `C#CCNC(=O)[C@H](CC(C)C)N[C@@H](c1ccc(-c2ccc(S(=O)(=O)CCNC(=O)CCCCC[N+]3=C(/C=C/C=C/C=C4/N(C)c5ccc(S(=O)(=O)O)cc5C4(C)C)C(C)(C)c4cc(S(=O)(=O)O)ccc43)cc2)cc1)C(F)(F)F` [GD32], in the assay with Jurkat cells, the “fluorescent bands after labeling” value was “no fluorescent bands were detected”. Also, the “minimum amount of active CTSK detected” value on CTSK is 0.5 ng.
